Laboratory results taken from patent US10265374B2, “Occidiofungin formations and uses thereof” (MISSISSIPPI STATE UNIVERSITY, priority 2014, dated 2019).

Columns and labels:
[1] = test system: normal human neonatal dermal fibroblasts cell line; experiment: In vitro toxicity screening (CellTiter-Blue cell viability, 48 hours); assay type: cell-based
Source text: Cancer cell lines, OVCAR8 (Center for Cancer Research (OVAR.8; Sample ID 25)), SW1088 (ATCC-HTB-12), and Toledo (ATCC CRL-2631), and normal human neonatal dermal fibroblasts cell line (ATCC-PCS-201-010) were passaged and prepped as previously described (See References 15-17). OVCAR8, SW1088, and Toledo2631 are ovarian, brain, and B-cell lymphoma cancer cell lines, respectively. This panel of cell lines was chosen based, in part, on their being from very different cancer types in order to discern whether occidiofungin would have a broad spectrum activity towards cancer cell lines of vastly different parental organ/cell types. OVCAR8 cells are widely used in the field of cancer therapeutic research as a panel representative of ovarian cancer in screening experiments for identifying both ovarian-specific and non-specific (i.e., anti-neoplastic activity on multiple cancer cell types) therapeutic agents (See References 28-30). Similarly, SW1088 cells are widely used in the field of cancer therapeutic research as a panel representative of glioma (the most common brain cancer) in screening experiments for identifying both glioma-specific and non-specific therapeutic agents (See References 31-32). Toledo 2631 cells are derived from lymphoma cells, and are used in the field of cancer therapeutic research for identifying lymphoma-specific and non-specific therapeutic agents (See, e.g., Reference 33). […] Cell counts per plate were calculated to be approximately 50,000 cells/mL. A 10× stock solution of occidiofungin was prepared at 65 μM concentration in 10% dimethyl sulfoxide (DMSO). Two-fold serial dilutions on a 96 well plate were set up in triplicate with starting concentration of 6.5 μM and a final concentration of 3 nM. Bortezomib was used as a comparator for toxicity against human fibroblast and was serially diluted two-fold starting at a concentration of 5 μM and ending at 2.5 nM. Bortezomib is used clinically against myeloma and lymphoma cancers in patients refractory against other chemotherapeutics (See References 18, 19). Furthermore, bortezomib has shown efficacy against a variety of solid tumors and cancer cell lines, making this an appropriate comparison molecule in the panel of cell lines chosen (See References 34-35). The plates were then incubated at 37° C. in 5% CO2 for 48 hours. After 48 hours, cell viability was monitored using CellTiter-Blue (Promega) cell viability assay by measuring the fluorescence emission of a redox activated dye (579EX/584EM) using a POLARstar Omega microplate reader (BMG Labtech).

[2] = Pharmacokinetics of occidiofungin in DOPC or DOPC:DPPG vesicles; assay type: in vivo, mice; settings: vesicle formulations, 2.5 mg/kg i.v., mice
Method: Entrapment of occidiofungin in vesicles was done using 1,2-Dioleoyl-sn-glycero-3-phosphocholine (DOPC) and 1,2-dipalmitoyl-sn-glycero-3-[phospho-rac-(3-lysyl(1-glycerol))] (DPPG) from Avanti polar lipids. Lipid cake formation and subsequent hydration was done according to the manufacturer's recommendation. Briefly, 20 mg/ml of DOPC in chloroform was placed in a glass beaker and dried by vacuum evaporation to remove the organic solvent. The lipid film formed was hydrated using a 1 μg/μl solution of occidiofungin in 1.5% (2-Hydroxypropyl)-β-cyclodextrin (Alfa Aesar), while maintaining the lipid concentration at 20 mg/ml and the solution was sonicated to form the vesicles. Similarly, DPPG was mixed with DOPC at a ratio of 9:1 (DOPC:DPPG) to make a homogenous lipid mixture at a concentration of 20 mg/ml and the same process of drying and hydration was repeated to make vesicles. Following vesicle formation, estimation of the amount of occidiofungin trapped inside each type of vesicle was done. The mixture containing free and vesicle trapped occidiofungin was passed through a gel filtration column containing Sephadex G-10 beads. The void volume (containing only the vesicle trapped occidiofungin) was collected and occidiofungin extracted using methanol (50% final concentration). Liquid chromatography was done on the extracted sample, and a standard and the concentration of occidiofungin in the extracted sample was estimated by a comparison of peak volumes.
Occidiofungin in DOPC and DOPC-DPPG, at a concentration of 2.5 mg/kg, with ˜1.25 mg/kg entrapped in vesicles, was administered to six female BALB/c mice respectively via intravenous administration. […] The mice were weighed prior to the start of the experiment and every 24 hours post injection (hpi).
Blood was drawn at time points 1 hpi, 3 hpi, 5 hpi, 7 hpi, 9 hpi, 12 hpi, 18 hpi, 24 hpi and 48 hpi. 15 μl of blood was drawn from the lateral saphenous vein of each mouse for the first three time points. Blood from three mice were pooled together and added to 5 μl of 6.4% citric acid to prevent coagulation. From the fourth time point, blood was drawn from the tail vein of the mice. Blood samples were spun down at 13000 rpm for 10 minutes to separate the plasma. The plasma and the blood pellet obtained were stored separately at −20° C. until analysis. The plasma samples were thawed and the occidiofungin was extracted using a final concentration of 50% methanol. The protein precipitate was spun down at 13000 rpm for 10 minutes and the supernatant was used for analysis. Liquid chromatography was done using Acclaim 120 C18 columns (Length: 150 mm; I.D: 2.1 mm; 5 μm) to purify the occidiofungin in the sample. The occidiofungin was then subjected to MS/MS. Fragmentation of the occidiofungin (parent mass 1200 and 1216 Da) was carried out and the fragment of 1068 and 1084 Da m/z, which corresponds to the occidiofungin molecule (A and B forms, respectively) without the xylose sugar, was used for quantification of occidiofungin. A calibration curve constructed using standard concentrations of occidiofungin in plasma was used to analyze the samples obtained from the mice for pharmacokinetics (See FIGS. 6A-6B & 7A-7B).

occidiofungin
cancer cell lines relative to normal human primary dermal fibroblasts cell line ([1]; TC50 of OVCAR8, SW1088, Toledo vs fibroblasts): approximately eight-fold higher
CC50 ([1]; human fibroblast cell line, 48 hours, mean of three independent experiments, read-out: TC50 (the source's name)): 533 nM
activity relative to bortezomib against the human fibroblast cell line ([1]; occidiofungin vs bortezomib): approximately eight-fold higher
half-life [2]: ~14 h
